Experimental data from patent US20250120902A1, “POSTBIOTIC FERMENT COMPOSITION FOR ROOT, SCALP, AND HAIR CARE AND METHOD OF PREPARING AND USING THE” (THE ROOTIST INC., priority 2023, published 2025).
Values joined by “and” are separate entries in the source; they are usually repeats but may differ in a detail not shown here. Identical values can stand only once.

System: 3D hair follicle organoids (HFDPC and HEKn cells)
Test: Hair follicle organoid growth test
Format: cell-based, Human
Conditions: 1 μM
Excerpt: Human Primary Dermal Papilla Cells (HFDPC) were collected from a person and provided by Kyungpook National University. Human Primary Epidermal Keratinocytes, neonatal foreskin (HEKn) cells were purchased from ATCC. […] The hair follicle organoid growth test aims to mass-produces hair follicle organoids by proliferating dermal papilla cells isolated from adult hair tissue in vitro, mixing them with keratinocytes, and then co-culturing them on a specially designed particle pattern substrate ([…], 150 spheroids/well). The experiment enables the assessment of the sample's impact on hair growth by monitoring changes in the diameter of keratinocyte pillars within the developed hair follicle organoid. In this test, to differentiate and validate the growth of HFDPC and HEKn cells, HFDPC cells were stained with Cell tracker CM-DilTM and HEKn cells were stained with Cell tracker Green CMFDATM. Stained HFDPC cells underwent filtration using a 15 μm strainer before being combined with DMEM medium to yield a density of 5×10^4 cells/well. Similarly, HEKn cells were adjusted to a density of 3×10^4 cells/well. […] 4) The test result measurements were initially analyzed using the Linear Mixed Model (LMM), which accounts for the random effects of each well. However, due to the lack of normality, the data were re-analyzed using the Generalized Linear Mixed Model (GLMM), which is suitable for non-normal data. […]

`Nc1cc(N2CCCCC2)nc(N)[n+]1[O-]` [Minoxidil, minoxidil] was tested. Which “Hair follicle organoid growth rate” value (day 3, compared to the untreated group (100%)) did it give?
The value was 114.67% and 114.67 ± 5.69%.

What about the “hair follicle organoid diameter” value (day 3, estimated mean ± standard deviation) of the same molecule?
The value was 25.77 ± 1.28 μm.
